# Source: the supplement of paper PMC8498969
# Key:
# HEK293 [1] = assay: cytotoxicity IC50 (ATP content, uninfected cells); higher = less cytotoxic; settings: infection: none
# HEK293 [2] = assay: IC50 for inhibition of ZIKV NS1 production
# Description: (§1)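 HEK293 cells in 1536-well plates were pre-treated with compound for 1 h, infected with ZIKV (MOI 1) for 24 h, and NS1 antigen (intra- plus extracellular) was measured by TR-FRET. Confirmation used 11-point 1:3 dilutions, and IC50 and maximal inhibition were fitted in GraphPad Prism.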
# HEK293 [3] = assay: maximal inhibition of ZIKV NS1 production (% inhibition); higher = stronger antiviral effect
# Description: as §1
Structure (SMILES),cytotoxicity IC50 (HEK293 [1]) [µM],IC50 (HEK293 [2]) [µM],maximal inhibition (HEK293 [3])
CC(C)c1ccc(Cn2ccc3c4c(N)nc(NC5CC5)nc4ccc32)cc1,78,3,106
CCN(CC)CCNC(=O)c1ccc2nc(-c3ccccc3)c(-c3ccc(CN4CCC(n5c(=O)[nH]c6ccccc65)CC4)cc3)nc2c1,> 100,60,55
O[C@@H](CNC[C@H](O)[C@H]1CCc2cc(F)ccc2O1)[C@@H]1CCc2cc(F)ccc2O1,> 100,24,94
CCOC(=O)N1CCN(/[N+]([O-])=N/Oc2ccc([N+](=O)[O-])cc2C#N)CC1,> 100,4.5,74
c1ccc2c(CCNc3ccc(Nc4ccncc4)cc3)c[nH]c2c1,> 100,23,51
COc1cc2nc(N3CCN(C(=O)c4ccco4)CC3)nc(N)c2cc1OC,40,18,104
CC(C)C[C@H](NC(=O)[C@H](Cc1ccccc1)NC(=O)c1cnccn1)B(O)O,0.04,0.025,95
CCC1=C[C@@H]2CN(C1)Cc1c([nH]c3ccccc13)[C@@](C(=O)OC)(c1cc3c(cc1OC)N(C)[C@H]1[C@@](O)(C(=O)OC)[C@H](OC(C)=O)[C@]4(CC)C=CCN5CC[C@]31[C@@H]54)C2,> 100,0.27,95
CCCCCC[C@H]1C(=O)O[C@H](C)[C@H](NC(=O)c2cccc(NC=O)c2O)C(=O)O[C@@H](C)[C@@H]1OC(=O)CC(C)C,0.0055,0.012,94
O=C(Nc1cc(C(F)(F)F)cc(C(F)(F)F)c1)c1cc(Cl)ccc1O,0.71,3.9,99
CC[C@]1(O)C[C@H]2CN(CCc3c([nH]c4ccccc34)[C@@](C(=O)OC)(c3cc4c(cc3OC)N(C=O)[C@H]3[C@@](O)(C(=O)OC)[C@H](OC(C)=O)[C@]5(CC)C=CCN6CC[C@]43[C@@H]65)C2)C1,> 100,0.16,55
Cc1c(N)nc([C@H](CC(N)=O)NC[C@@H](N)C(N)=O)nc1C(=O)N[C@H](C(=O)N[C@@H](C)[C@H](O)[C@@H](C)C(=O)N[C@@H](C(=O)NCCc1nc(-c2nc(C(=O)NCCC[S+](C)C)cs2)cs1)[C@@H](C)O)C(O[C@H]1O[C@H](CO)[C@H](O)[C@@H](O)[C@H]1O[C@H]1O[C@H](CO)[C@@H](O)[C@H](OC(N)=O)[C@@H]1O)c1cnc[nH]1 (stereo not given in full),> 100,6.3,103
NC1(c2ccc(-c3nc4ccn5c(=O)[nH]nc5c4cc3-c3ccccc3)cc2)CCC1,4.4,23,103
S=c1nc[nH]c2nc[nH]c12,6.5,12,99
COCC[n+]1c2c(n(Cc3cnccn3)c1C)C(=O)c1ccccc1C2=O,0.03,0.018,104
Nc1nc(Cl)nc2c1ncn2[C@@H]1O[C@H](CO)[C@@H](O)[C@@H]1F,> 100,41,94
CNC1CCC(N(Cc2cccc(-c3ccncc3)c2)C(=O)c2sc3ccccc3c2Cl)CC1 (stereo not given),> 100,49,94
[O-][n+]1ccccc1SSc1cccc[n+]1[O-],0.16,1.4,98
CC(C)(C)CC(C)(C)c1ccc(OCCOCC[N+](C)(C)Cc2ccccc2)cc1,–,9,103
CCC(=O)N1CCN(c2ccc(-n3c(=O)ccc4cnc5ccc(-c6cnc7ccccc7c6)cc5c43)cc2C(F)(F)F)CC1,1.5,–,–
CC[C@@H]1C(=O)N(C)c2cnc(Nc3ccc(C(=O)NC4CCN(C)CC4)cc3OC)nc2N1C1CCCC1,> 100,–,–
CCc1cnn2c(NCc3ccc[n+]([O-])c3)cc(N3CCCC[C@H]3CCO)nc12,> 100,–,90
